From ChEMBL document CHEMBL4706534, “1,2,3-Triazole-containing hybrids with potential antibacterial activity against methicillin-resistant Staphylococcus aureus (MRSA)” (Eur J Med Chem, 2020) come the findings set out here.

pEC50, pIC50: −log10 of the molar value. In brackets after ≈: the same amount, converted by molar mass.

The test system of data set [1] is Staphylococcus epidermidis. Kind of data set: Antibacterial activity against methicillin-resistant Staphylococcus epidermidis. Type of data set: functional.
The test system of data set [2] is Staphylococcus aureus. Put plainly: Antibacterial activity against methicillin-resistant Staphylococcus aureus. Format: functional.
Data set [3] relates to Staphylococcus aureus. Kind of data set: Antibacterial activity against Staphylococcus aureus NRS121 incubated for 18 hrs by CLSI-based two fold agar dilution method. Type of data set: functional.
Data set [4] concerns Staphylococcus aureus. Put plainly: Antibacterial activity against Staphylococcus aureus NRS127 incubated for 18 hrs by CLSI-based two fold agar dilution method. Format: functional.
The test system of data set [5] is Staphylococcus aureus. Kind of data set: Antibacterial activity against Staphylococcus aureus NRS119 incubated for 18 hrs by CLSI-based two fold agar dilution method. Type of data set: functional. On the technique in general: In agar dilution the substance is mixed into plates at graded concentrations.
Data set [6] relates to Staphylococcus aureus. Put plainly: Antibacterial activity against Staphylococcus aureus NRS271 incubated for 18 hrs by CLSI-based two fold agar dilution method. Type of data set: functional.
Data set [7] has as its system Staphylococcus aureus. Put plainly: microbe, parasite or virus in culture. The following applies: 936.
Data set [8] relates to Staphylococcus aureus. Kind of data set: microbe, parasite or virus in culture. The following applies: 725.
Data set [9] concerns Staphylococcus aureus. Kind of data set: Antibacterial activity against Methicillin-resistant Staphylococcus aureus ATCC 33591. Type of data set: functional, organism-based.
The test system of data set [10] is Staphylococcus aureus. Put plainly: Antibacterial activity against Staphylococcus aureus ATCC 29213. Type of data set: functional, organism-based.
For data set [11], the system named is Staphylococcus aureus. Kind of data set: Antibacterial activity against methicillin-resistant Staphylococcus aureus ATCC 43300 incubated for 16 to 18 hrs by CLSI based assay. Format: functional. The following applies: time 16-18 hrs.
Data set [12] concerns Staphylococcus aureus. Kind of data set: Resistance index, ratio of MIC for antibacterial activity against Staphylococcus aureus ATCC 43300 incubated for 16 to 18 hrs by CLSI based assay to MIC for antibacterial activity against Staphylococcus aureus DSM 20231 incubated for 16 to 18 hrs by CLSI based assay. Format: functional. The settings on record: time 16-18 hrs.
In data set [13] the test system is Staphylococcus aureus. Put plainly: Antibacterial activity against Staphylococcus aureus DSM 20231 incubated for 16 to 18 hrs by CLSI based assay. Type of data set: functional. The following applies: time 16-18 hrs.
In data set [14] the test system is Staphylococcus aureus. Put plainly: Antibacterial activity against Staphylococcus aureus C463 incubated for 18 hrs by CLSI-based two fold agar dilution method. Type of data set: functional.
The test system of data set [15] is Staphylococcus epidermidis. Put plainly: Antibacterial activity against methicillin-sensitive Staphylococcus epidermidis. Format: functional.
Data set [16] concerns Proteus vulgaris. Kind of data set: Antibacterial activity against Proteus vulgaris. Format: functional.
Data set [17] has as its system Providencia rettgeri. Kind of data set: Antibacterial activity against Providencia rettgeri. Format: functional.
The subject of data set [18] is Staphylococcus aureus. Kind of data set: Antibacterial activity against methicillin-sensitive Staphylococcus aureus. Type of data set: functional.
For data set [19], the system named is Enterococcus faecalis. Kind of data set: Antibacterial activity against Enterococcus faecalis. Format: functional.
Data set [20] deals with Klebsiella pneumoniae. Kind of data set: Antibacterial activity against Klebsiella pneumoniae. Format: functional.
The test system of data set [21] is Enterococcus faecium. Put plainly: Antibacterial activity against Enterococcus faecium. Format: functional.
The test system of data set [22] is Klebsiella aerogenes. Put plainly: Antibacterial activity against Enterobacter aerogenes. Type of data set: functional.
Data set [23] is described as follows: Cytotoxicity against CHO cells. The following applies: chinese hamster. Format: cell-based, Cricetulus griseus.
For data set [24], the system named is Escherichia coli. Kind of data set: Antibacterial activity against Escherichia coli. Type of data set: functional.
Data set [25] relates to Enterobacter cloacae. Put plainly: Antibacterial activity against Enterobacter cloacae. Format: functional.
The subject of data set [26] is Staphylococcus aureus. Put plainly: Antibacterial activity against methicillin-resistant Staphylococcus aureus ATCC 33591 measured after 18 hrs by CLSI-based broth microdilution method. Type of data set: functional.
The subject of data set [27] is Staphylococcus aureus. Kind of data set: Antibiofilm activity against methicillin-resistant Staphylococcus aureus ATCC BAA-44 incubated for 24 hrs by crystal violet-staining based assay. Type of data set: functional, organism-based. The following applies: ATCC BAA-44, 24 h.
Data set [28] has as its system Staphylococcus aureus. Kind of data set: Antibiofilm activity against methicillin-resistant Staphylococcus aureus ATCC BAA-44 assessed as disruption of preformed biofilms incubated for 24 hrs by CV-staining based assay. The settings on record: ATCC BAA-44, 24 h. Format: functional, organism-based.
The subject of data set [29] is Staphylococcus aureus. Put plainly: Potentiation of oxacillin-induced antibacterial activity against methicillin-resistant Staphylococcus aureus ATCC BAA-44 assessed as reduction in oxacillin MIC preincubated for 30 mins followed by oxacillin addition and measured after 16 hrs by broth microdilution method. Format: functional. The settings on record: time 16.5 hrs. On the technique in general: Dilution methods test growth across graded concentrations, often in twofold steps.

As to `CC[C@@H](C(=O)[C@@H](C)[C@@H](O)[C@H](C)[C@@H]1O[C@@H]([C@@H](CC)C(=O)NCc2cn([C@H]3C[C@H](n4cc(F)c(=O)[nH]c4=O)O[C@@H]3CO)nn2)CC[C@@H]1C)[C@H]1O[C@]2(C=C[C@@H](O)[C@]3(CC[C@@](C)([C@H]4CC[C@](O)(CC)[C@H](C)O4)O3)O2)[C@H](C)C[C@@H]1C`, the MIC in [1] and in data set [2] was 32 µg/mL (≈ 30.2 µM) each time.

For `CC(=O)NC[C@H]1CN(c2ccc(N3C[C@H]4CC(n5ccnn5)C[C@H]4C3)c(F)c2)C(=O)O1` (stereo not given in full), the MIC in [3], in [4], in data set [5] and in data set [6] was 16 µg/mL (≈ 37.3 µM) throughout.

Consider `Cc1nnc(SCC2=C(C(=O)O)N3C(=O)[C@@H](NC(=O)Cn4cnnn4)[C@H]3SC2)s1` [CEFAZOLIN SODIUM], for which the MIC is 8 µM in data set [7] and 32 µM in [8].

For `COc1c(Cn2cc(-c3nnc(-c4ccccc4)o3)nn2)c(OC)c(OC)c(OC)c1OC`, the IC50 (as a rule, the concentration that gives 50% inhibition) in data set [9] is 6.4 µg/mL (≈ 14.1 µM); in data set [10] it was 7 µg/mL (≈ 15.4 µM).

Take `N=C(N)NCCC[C@H](NC(=O)[C@H](Cc1c[nH]c2ccccc12)NC(=O)[C@@H](N)CCCNC(=N)N)C(=O)N[C@@H](Cc1c[nH]c2ccccc12)C(=O)N[C@@H](CCCCn1cc(COc2cc(OCc3cn(CCCC[C@H](NC(=O)[C@H](Cc4c[nH]c5ccccc45)NC(=O)[C@H](CCCNC(=N)N)NC(=O)[C@H](Cc4c[nH]c5ccccc45)NC(=O)[C@@H](N)CCCNC(=N)N)C(N)=O)nn3)cc(OCc3cn(CCCC[C@H](NC(=O)[C@H](Cc4c[nH]c5ccccc45)NC(=O)[C@H](CCCNC(=N)N)NC(=O)[C@H](Cc4c[nH]c5ccccc45)NC(=O)[C@@H](N)CCCNC(=N)N)C(N)=O)nn3)c2)nn1)C(N)=O`: the MIC was 2.7 µM (≈ 7.58 µg/mL) in [11] and 5.4 µM (≈ 15.2 µg/mL) in data set [13]. The Ratio in data set [12] is 0.5.

Take `O=C1CC2CN(c3ccc(N4C[C@H](Cn5ccnn5)OC4=O)cc3F)CC2C1` (stereo not given in full): the MIC in data set [14] was determined as 3.12 µg/mL (≈ 8.1 µM).

As to `COc1c(N2C[C@@H]3CCCN(C(=O)Cn4cc(CN5C(=O)C(=O)c6ccccc65)nn4)[C@@H]3C2)c(F)cc2c(=O)c(C(=O)O)cn(C3CC3)c12`, the MIC in [15] is at most 0.03 µg/mL; in [16] it was at most 0.03 µg/mL; in data set [2] it was 1 µg/mL (≈ 1.49 µM); in data set [17], at most 0.03 µg/mL; in data set [18], at most 0.03 µg/mL; in data set [19] it was at most 0.03 µg/mL. Further, the MIC in data set [20], in data set [21], in data set [22], in [24] and in [25] was at most 0.03 µg/mL throughout. It took 64 µg/mL (≈ 95.6 µM) to reach half-maximal cytotoxicity in data set [23] (CC50).

With `CC(=O)NC[C@H]1CN(c2ccc(N3CCN(C(=O)c4cn(C[C@H]5O[C@@H](n6cc(C)c(=O)[nH]c6=O)[C@H](O)[C@@H]5O)nn4)CC3)c(F)c2)C(=O)O1`, the MIC in [26] was determined as 64 µg/mL (≈ 95.3 µM).

Consider `CCCCCCc1ccc(C(=O)NCCn2cc(CCCCCc3c[nH]c(N)n3)nn2)cc1`, for which, in data set [27], the pIC50 (usually the IC50 on a negative log10 scale, so that one unit is a factor of ten) was 6.15. Besides, in data set [28], the pEC50 (as a rule, −log10 of the EC50, conventionally taken in molar units) was 6.05. Further, in data set [29], the “fold change (FC)” value was determined as 64.
